Data set [1] is described as follows: Metabolic stability in human liver microsomes assessed as compound remaining after 15 mins. It is filed as ADME, Microsome. The conditions noted are these: read-out: Stability. (In general: Liver microsomes are vesicles of endoplasmic reticulum, rich in cytochrome P450 enzymes.)
Data set [2] is described as follows: Plasma half life in rat at 2 umol/kg, iv. It is filed as ADME, organism-based.
The nature of data set [3]: Oral bioavailability in rat at 2 umol/kg. The conditions noted are these: in vivo. Format: ADME, organism-based.
The species named for a further data set is Homo sapiens. The data set is described as follows: Ratio of pKi for human CCK-1R to pKi for human CCK-2R.
Data set [4] can be described thus: Apparent permeability from apical to basolateral side in human Caco-2 cells. It is filed as ADME, cell-based.
Data set [5] can be described thus: Plasma clearance in rat at 2 umol/kg, iv. Format: ADME, organism-based.
A short description of data set [6]: Apparent permeability from basolateral to apical side in human Caco-2 cells. It is filed as ADME, cell-based. (In general: Caco-2 cells form a polarised layer with tight junctions and transporters.)
Data set [7] can be described thus: Volume of distribution at steady state in rat at 2 umol/kg, iv and 2 umol/kg, po. Particulars: in vivo, read-out: Vdss. It is filed as ADME, organism-based.
Data set [8] relates to Rattus norvegicus. The data set can be described thus: Inhibition of CCK8s-stimulated plasma amylase release in rat assessed as reduction in plasma amylase at 30 umol/kg, po dosed 60 mins before 10 nmol/kg, sc CCK8s challenge and measured after 6 hrs. Format: functional.
Data set [9] has as its system Rattus norvegicus. The data set is described as follows: Inhibition of iv dosed pentagastrin-stimulated gastric acid secretion in iv dosed anesthetized Ghosh and Schild rat model assessed as decrease in gastric lumen perfusate pH. It is filed as functional, Stomach. The conditions noted are these: for ED50: Rattus norvegicus, Stomach, iv.
For data set [10], the target named is T1, Gastrin/cholecystokinin type B receptor (Homo sapiens, UniProt P32239).
T1 sequence (P32239 whole entry): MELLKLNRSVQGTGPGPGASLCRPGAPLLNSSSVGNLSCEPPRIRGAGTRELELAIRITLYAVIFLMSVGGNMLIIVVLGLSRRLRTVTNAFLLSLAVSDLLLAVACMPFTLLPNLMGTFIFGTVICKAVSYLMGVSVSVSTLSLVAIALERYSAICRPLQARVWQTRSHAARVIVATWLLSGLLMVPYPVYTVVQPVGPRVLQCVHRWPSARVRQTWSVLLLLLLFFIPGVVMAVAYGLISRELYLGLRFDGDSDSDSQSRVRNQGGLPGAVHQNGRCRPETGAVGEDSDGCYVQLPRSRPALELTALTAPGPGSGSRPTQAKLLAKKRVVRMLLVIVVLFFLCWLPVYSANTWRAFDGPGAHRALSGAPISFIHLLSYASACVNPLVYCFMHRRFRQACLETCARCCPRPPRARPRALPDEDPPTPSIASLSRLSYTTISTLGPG
The data set can be described thus: Displacement of [125I]-CCK-8S from human CCK-2R after 100 mins by liquid scintillation counting. A general note: In a radioligand displacement assay an active substance lowers the binding of a labelled ligand.

The structures appear in SMILES notation.

For orientation: half-life means the time needed for the level to fall by half in the phase considered. A low value points to rapid decline. A word on the bioavailability: it is the share of a dose that reaches the circulation, judged against a reference dose that is usually intravenous. A high value points to good availability. The term Papp A→B denotes the apparent permeability from the apical to the basolateral side of a cell layer. For orientation: clearance means the volume of plasma or blood freed of the substance per unit of time. A lower clearance goes with a low capacity for elimination. By Papp B→A is commonly meant the apparent permeability from the basolateral to the apical side of a cell layer. Usually ED50 stands for the midpoint of the dose-response relation. As a reminder, the Ki is a measure of affinity in units of concentration, obtained from inhibition or displacement.

For the compound `O=C(N[C@@H](Cc1ccc(F)c(Br)c1)C(=O)O)c1ccc(Cl)cc1NS(=O)(=O)c1cccc2nsnc12`, the remaining at 0.25 h in [1] was 65%. In [2], this compound had a half-life of 1.3 h. In addition, in data set [3], the bioavailability was 11%. In the data set listed under Homo sapiens, the Ratio pKi was 1.4. The Papp A→B in data set [4] worked out at 0.04 ×10⁻⁶ cm/s. Further, the clearance in data set [5] was determined as 3.1 mL/min/kg. In addition, the Papp B→A in [6] was 1.25 ×10⁻⁶ cm/s. In addition, the Vd in [7] was determined as 0.105 L/kg.

As to `O=C(N[C@@H](Cc1ccc(Cl)c(Br)c1)C(=O)O)c1ccc(Br)cc1NS(=O)(=O)c1cccc2nsnc12`, in data set [1], the remaining at 0.25 h amounted to 61%. The Ratio pKi in the data set listed under Homo sapiens was determined as 1. Also, the Papp A→B in data set [4] is 0.1 ×10⁻⁶ cm/s. The Papp B→A in [6] turned out to be 0.19 ×10⁻⁶ cm/s.

For `O=C(N[C@@H](Cc1ccc(F)c(Br)c1)C(=O)O)c1ccc(Cl)cc1NS(=O)(=O)c1cccc2nccnc12`, the remaining at 0.25 h in data set [1] turned out to be 50%. The compound also gave a half-life in [2] of 1.5 h. The same compound registered a bioavailability in [3] of 4%. Besides, the Ratio pKi in the data set listed under Homo sapiens worked out at 1.6. Further, in data set [4], the Papp A→B stood at 0.04 ×10⁻⁶ cm/s. For the same compound, the clearance in data set [5] worked out at 4.1 mL/min/kg. Further, in data set [6], the Papp B→A was 4.76 ×10⁻⁶ cm/s. In addition, in data set [7], the Vd stood at 0.145 L/kg.

Take `O=C(N[C@@H](Cc1ccc(Cl)c(Cl)c1)C(=O)O)c1ccc(I)cc1NS(=O)(=O)c1cccc2nsnc12`: the “inhibition (INH)” value with Rattus norvegicus [8] is recorded as 45%. Further, in the data set with Rattus norvegicus [9], the pED50 was determined as 5.1 and the ED50 worked out at 7.9 µmol/kg. Besides, the Ratio pKi in the data set filed under Homo sapiens was determined as 0.9. Besides, the affinity in data set [10], expressed as Ki, was 25.1 nM.

Compound `O=C(N[C@@H](Cc1ccc(F)c(Br)c1)C(=O)O)c1ccc(I)cc1NS(=O)(=O)c1cccc2nsnc12` showed a half-life in data set [2] of 6.4 h. Further, in data set [3], the bioavailability was 14%. The Ratio pKi in the data set listed under Homo sapiens is 1.5. In data set [5], this compound gave a clearance of 3.1 mL/min/kg. For the same compound, in [7], the Vd was 0.215 L/kg.

As to `O=C(N[C@@H](Cc1ccc(F)c(Br)c1)C(=O)O)c1ccc(Br)cc1NS(=O)(=O)c1cccc2nccnc12`, the “inhibition (INH)” value with Rattus norvegicus [8] is listed as 67%. In addition, the remaining at 0.25 h in data set [1] was found to be 54%. In the data set listed under Homo sapiens, the Ratio pKi is 1.8. In addition, in [4], the Papp A→B turned out to be 0.03 ×10⁻⁶ cm/s. Moreover, the Papp B→A in data set [6] came to 4.36 ×10⁻⁶ cm/s.

As for `O=C(N[C@@H](Cc1ccc(F)c(Br)c1)C(=O)O)c1ccc(Br)cc1NS(=O)(=O)c1cccc2nsnc12`, the remaining at 0.25 h in data set [1] was 47%. Moreover, the Ratio pKi in the data set filed under Homo sapiens was 1.6. The Papp A→B in [4] was found to be 0.05 ×10⁻⁶ cm/s. Also, in [6], the Papp B→A turned out to be 0.34 ×10⁻⁶ cm/s.

For the compound `O=C(N[C@@H](Cc1ccc(F)c(Br)c1)C(=O)O)c1cc(Cl)c(Cl)cc1NS(=O)(=O)c1cccc2nsnc12`, the “inhibition (INH)” value in the data set with Rattus norvegicus [8] stood at 67%. Further, the remaining at 0.25 h in data set [1] turned out to be 76%. In addition, the half-life in data set [2] was 6.2 h. The bioavailability in data set [3] came to 21%. Also, in the data set on Rattus norvegicus [9], the pED50 is given as 5.8 and the 50% effective dose (ED50) was found to be 1.6 µmol/kg. Besides, the Papp A→B in data set [4] was found to be 0.02 ×10⁻⁶ cm/s. This compound also returned a clearance in [5] of 2.6 mL/min/kg. Besides, the Papp B→A in data set [6] is 0.37 ×10⁻⁶ cm/s. The Vd in data set [7] came out at 0.203 L/kg.

As to `O=C(N[C@@H](Cc1ccc(F)c(Br)c1)C(=O)O)c1cc(Cl)c(Cl)cc1NS(=O)(=O)c1cccc2nccnc12`, the “inhibition (INH)” value in the data set on Rattus norvegicus [8] is reported as -5%. Moreover, the remaining at 0.25 h in data set [1] was determined as 65%. The half-life in [2] was 7 h. Besides, in data set [3], the bioavailability was determined as 9%. For the same compound, in the data set listed under Homo sapiens, the Ratio pKi turned out to be 1.4. Besides, the Papp A→B in data set [4] was 0.1 ×10⁻⁶ cm/s. This compound registered a clearance in data set [5] of 2 mL/min/kg. The Papp B→A in data set [6] was determined as 1.05 ×10⁻⁶ cm/s. Further, the Vd in data set [7] turned out to be 0.129 L/kg.

In the case of `O=C(N[C@@H](Cc1ccc(Cl)c(Br)c1)C(=O)O)c1ccc(Br)cc1NS(=O)(=O)c1cccc2nccnc12`, the “inhibition (INH)” value in the data set with Rattus norvegicus [8] is recorded as 65%. Moreover, in data set [1], the remaining at 0.25 h stood at 69%. Also, the Ratio pKi in the data set listed under Homo sapiens amounted to 1. Further, in data set [4], the Papp A→B is 0.1 ×10⁻⁶ cm/s. The Papp B→A in data set [6] came out at 1.97 ×10⁻⁶ cm/s.

For the origin of these results see ChEMBL document CHEMBL1156092, “Anthranilic sulfonamide CCK1/CCK2 dual receptor antagonists II: tuning of receptor selectivity and in vivo efficacy” (Bioorg Med Chem Lett, 2009).
